From publication PMC6001238, “Iterative Chemical Engineering of Vancomycin Leads to Novel Vancomycin Analogs With a High in Vitro Therapeutic Index” (Frontiers in Microbiology, 2018)
Converted amounts (≈) assume the structure as drawn.

Columns and labels:
[1] = test system: Murine leukemia (L1210) cells; assay: Cytostatic activity, L1210 cell proliferation; format: cell-based; conditions: mean ± SD of three experiments; highest concentration tested 250 µM; 2 days; read-out: Toxicity (IC50) L1210
Outline: (§1)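 Suspensions (300,000–500,000 cells/mL) combined with equal volumes of diluted compound; 37°C; L1210 2 d / CEM 3 d / HeLa 4 d; counted by Coulter counter; IC50 vs untreated wells.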

MRSA KS6 = assay: MIC, broth microdilution, MRSA KS6; format: cell-based, Staphylococcus aureus; conditions: for MIC-fold improvement vs. vancomycin: MRSA KS6, ratio of MIC of vancomycin and MIC of analogue; for MIC: Staphylococcus aureus MRSA KS6, read-out: MIC
Outline: (§2)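 Susceptibility was scored by broth microdilution (CLSI). In one instance each vancomycin analog or control antibiotic was tested in the presence of vancomycin, 10 μM final, and ultrapure water plus non-inoculated broth were included as controls.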

E. faecalis VRE 6 = assay: MIC, broth microdilution, vancomycin-resistant E. faecalis VRE 6 (VanA); format: cell-based, Enterococcus faecalis; conditions: for MIC: Enterococcus faecalis VRE 6 (vancomycin-resistant), read-out: MIC; for MIC-fold improvement vs. vancomycin: VRE 6, ratio of MIC of vancomycin and MIC of analogue
Outline: as §2

MRSA KS2 = assay: MIC, broth microdilution, MRSA KS2; format: cell-based, Staphylococcus aureus; conditions: for MIC-fold improvement vs. vancomycin: MRSA KS2, ratio of MIC of vancomycin and MIC of analogue; for MIC: Staphylococcus aureus MRSA KS2, read-out: MIC
Outline: as §2

[2] = test system: human cervix carcinoma (HeLa) cells; assay: Cytostatic activity, HeLa cell proliferation; format: cell-based; conditions: mean ± SD of three experiments; highest concentration tested 250 µM; 4 days; read-out: Toxicity (IC50) HeLa
Outline: as §1

MRSA KS1 = assay: MIC, broth microdilution, MRSA KS1; format: cell-based, Staphylococcus aureus; conditions: for MIC-fold improvement vs. vancomycin: MRSA KS1, ratio of MIC of vancomycin and MIC of analogue; for MIC: Staphylococcus aureus MRSA KS1, read-out: MIC
Outline: as §2

[3] = test system: S. aureus VSSA (ATCC 6538); assay: MIC, broth microdilution, vancomycin-sensitive S. aureus (VSSA/MSSA, ATCC 6538); format: cell-based, Staphylococcus aureus; conditions: for MIC: Staphylococcus aureus VSSA, read-out: MIC; for MIC-fold improvement vs. vancomycin: VSSA, ratio of MIC of vancomycin and MIC of analogue
Outline: as §2

MRSA KS89 = assay: MIC, broth microdilution, MRSA KS89; format: cell-based, Staphylococcus aureus; conditions: for MIC-fold improvement vs. vancomycin: MRSA KS8, ratio of MIC of vancomycin and MIC of analogue; for MIC: Staphylococcus aureus MRSA KS8, read-out: MIC
Outline: as §2

S. aureus VISA/HIP5827 = assay: MIC, broth microdilution, vancomycin-intermediate S. aureus VISA HIP5827; format: cell-based, Staphylococcus aureus; conditions: for MIC: Staphylococcus aureus VISA/HIP5827, read-out: MIC; for MIC-fold improvement vs. vancomycin: VISA/HIP5827, ratio of MIC of vancomycin and MIC of analogue
Outline: as §2

[4] = test system: human T-lymphocyte (CEM) cells; assay: Cytostatic activity, CEM cell proliferation; format: cell-based; conditions: mean ± SD of three experiments; highest concentration tested 250 µM; 3 days; read-out: Toxicity (IC50) CEM
Outline: as §1

[5] = test system: L1210, CEM and HeLa cell lines; assay: Cytostatic activity, average or summary over L1210, CEM and HeLa; format: cell-based; conditions: average of L1210, CEM and HeLa; read-out: Toxicity (IC50) Average
Outline: as §1

E. faecalis VSE 1 = assay: MIC, broth microdilution, vancomycin-sensitive E. faecalis (VSE 1); format: cell-based, Enterococcus faecalis; conditions: for MIC: Enterococcus faecalis VSE 1 (vancomycin-sensitive), read-out: MIC; for MIC-fold improvement vs. vancomycin: VSE 1, ratio of MIC of vancomycin and MIC of analogue
Outline: as §2

E. faecalis VRE 29 = assay: MIC, broth microdilution, vancomycin-resistant E. faecalis VRE 29 (VanA); format: cell-based, Enterococcus faecalis; conditions: for MIC: Enterococcus faecalis VRE 29 (vancomycin-resistant), read-out: MIC; for MIC-fold improvement vs. vancomycin: VRE 29, ratio of MIC of vancomycin and MIC of analogue
Outline: as §2

E. faecalis VRE 53 = assay: MIC, broth microdilution, vancomycin-resistant E. faecalis VRE 53 (VanA); format: cell-based, Enterococcus faecalis; conditions: for MIC: Enterococcus faecalis VRE 53 (vancomycin-resistant), read-out: MIC; for MIC-fold improvement vs. vancomycin: VRE 53, ratio of MIC of vancomycin and MIC of analogue
Outline: as §2

E. faecalis VRE 37 = assay: MIC, broth microdilution, vancomycin-resistant E. faecalis VRE 37 (VanA); format: cell-based, Enterococcus faecalis; conditions: for MIC: Enterococcus faecalis VRE 37 (vancomycin-resistant), read-out: MIC; for MIC-fold improvement vs. vancomycin: VRE 37, ratio of MIC of vancomycin and MIC of analogue
Outline: as §2

S. aureus VRSA = assay: MIC, broth microdilution, vancomycin-resistant S. aureus (VRSA); format: cell-based, Staphylococcus aureus; conditions: for MIC: Staphylococcus aureus VRSA, read-out: MIC; for MIC-fold improvement vs. vancomycin: VRSA, ratio of MIC of vancomycin and MIC of analogue
Outline: as §2

SMILES | IC50 [1] [µM] | MIC-fold improvement vs. vancomycin (MRSA KS6) | MIC (MRSA KS6) [µM] | MIC (E. faecalis VRE 6) [µM] | MIC-fold improvement vs. vancomycin (E. faecalis VRE 6) | MIC-fold improvement vs. vancomycin (MRSA KS2) | MIC (MRSA KS2) [µM] | IC50 [2] [µM] | MIC-fold improvement vs. vancomycin (MRSA KS1) | MIC (MRSA KS1) [µM] | MIC [3] [µM] | MIC-fold improvement vs. vancomycin [3] | MIC-fold improvement vs. vancomycin (MRSA KS89) | MIC (MRSA KS89) [µM] | MIC (S. aureus VISA/HIP5827) [µM] | MIC-fold improvement vs. vancomycin (S. aureus VISA/HIP5827) | IC50 [4] [µM] | IC50 [5] [µM] | MIC (E. faecalis VSE 1) [µM] | MIC-fold improvement vs. vancomycin (E. faecalis VSE 1) | other results
CN[C@H](CC(C)C)C(=O)N[C@H]1C(=O)N[C@@H](CC(N)=O)C(=O)N[C@H]2C(=O)N[C@H]3C(=O)N[C@H](C(=O)N[C@H](C(=O)NCC(=O)Nc4ccc(-c5cn(-c6ccccc6)nn5)cc4)c4cc(O)cc(O)c4-c4cc3ccc4O)[C@H](O)c3ccc(c(Cl)c3)Oc3cc2cc(c3O[C@@H]2O[C@H](CO)[C@@H](O)[C@H](O)[C@H]2O[C@H]2C[C@](C)(N)[C@H](O)[C@H](C)O2)Oc2ccc(cc2Cl)[C@H]1O [Vanc-77] | 192 ± 101 | 4 | 0.20 (≈ 0.345 µg/mL) | 1.56 (≈ 2.69 µg/mL) | 128 | 4 | 0.20 (≈ 0.345 µg/mL) | 58 ± 7 | >8 | <0.10 | 0.39 (≈ 0.673 µg/mL) | 2 | 4 | 0.20 (≈ 0.345 µg/mL) | 0.78 (≈ 1.35 µg/mL) | 8 | 26 ± 1 | 92 | 0.39 (≈ 0.673 µg/mL) | 4 | MIC (E. faecalis VRE 29): 6.25 µM (≈ 10.8 µg/mL); MIC-fold improvement vs. vancomycin (E. faecalis VRE 29): 64; MIC (E. faecalis VRE 53): 6.25 µM (≈ 10.8 µg/mL); MIC-fold improvement vs. vancomycin (E. faecalis VRE 53): 64; MIC (E. faecalis VRE 37): 6.25 µM (≈ 10.8 µg/mL); MIC-fold improvement vs. vancomycin (E. faecalis VRE 37): 64; MIC (S. aureus VRSA): 0.78 µM (≈ 1.35 µg/mL); MIC-fold improvement vs. vancomycin (S. aureus VRSA): 128
CNC(CC(C)C)C(=O)NC1C(=O)NC(CC(N)=O)C(=O)NC2C(=O)NC3C(=O)NC(C(=O)NC(C(=O)NCC(=O)Nc4ccc(-c5ccc(C(C)=O)cc5)cc4)c4cc(O)cc(O)c4-c4cc3ccc4O)C(O)c3ccc(c(Cl)c3)Oc3cc2cc(c3OC2OC(CO)C(O)C(O)C2OC2CC(C)(N)C(O)C(C)O2)Oc2ccc(cc2Cl)C1O (centres unmarked) [Vanc-85] | 31 ± 9 | 2 | 0.39 (≈ 0.663 µg/mL) | 0.78 (≈ 1.33 µg/mL) | 256 | 4 | 0.20 (≈ 0.34 µg/mL) | 94 ± 12 | 8 | 0.10 (≈ 0.17 µg/mL) | 0.20 (≈ 0.34 µg/mL) | 4 | 4 | 0.20 (≈ 0.34 µg/mL) | 0.78 (≈ 1.33 µg/mL) | 8 | 5.6 ± 0.6 | 44 | ≤0.05 | ≥32 | MIC (E. faecalis VRE 29): 1.56 µM (≈ 2.65 µg/mL); MIC (E. faecalis VRE 53): 12.5 µM (≈ 21.2 µg/mL); MIC-fold improvement vs. vancomycin (E. faecalis VRE 53): 32; MIC (E. faecalis VRE 37): 3.13 µM (≈ 5.32 µg/mL); MIC-fold improvement vs. vancomycin (E. faecalis VRE 37): 128; MIC (S. aureus VRSA): 1.56 µM (≈ 2.65 µg/mL); MIC-fold improvement vs. vancomycin (S. aureus VRSA): 64
CNC(CC(C)C)C(=O)NC1C(=O)NC(CC(N)=O)C(=O)NC2C(=O)NC3C(=O)NC(C(=O)NC(C(=O)NCCCNC(=O)c4ccc(C(C)(C)C)cc4)c4cc(O)cc(O)c4-c4cc3ccc4O)C(O)c3ccc(c(Cl)c3)Oc3cc2cc(c3OC2OC(CO)C(O)C(O)C2OC2CC(C)(N)C(O)C(C)O2)Oc2ccc(cc2Cl)C1O (centres unmarked) [Vanc-73] | 108 ± 42 | 2 | 0.39 (≈ 0.65 µg/mL) | 6.25 (≈ 10.4 µg/mL) | 32 | 2 | 0.39 (≈ 0.65 µg/mL) | 81 ± 6 | 1 | 0.78 (≈ 1.3 µg/mL) | 0.78 (≈ 1.3 µg/mL) | 1 | 2 | 0.39 (≈ 0.65 µg/mL) | 1.56 (≈ 2.6 µg/mL) | 4 | 130 ± 6 | 106 | 0.78 (≈ 1.3 µg/mL) | 2 | MIC (E. faecalis VRE 29): 12.5 µM (≈ 20.8 µg/mL); MIC-fold improvement vs. vancomycin (E. faecalis VRE 29): 32; MIC (E. faecalis VRE 53): 25 µM (≈ 41.6 µg/mL); MIC-fold improvement vs. vancomycin (E. faecalis VRE 53): 16; MIC (E. faecalis VRE 37): 25 µM (≈ 41.6 µg/mL); MIC-fold improvement vs. vancomycin (E. faecalis VRE 37): 16; MIC (S. aureus VRSA): 6.25 µM (≈ 10.4 µg/mL); MIC-fold improvement vs. vancomycin (S. aureus VRSA): 16
CN[C@H](CC(C)C)C(=O)N[C@H]1C(=O)N[C@@H](CC(N)=O)C(=O)N[C@H]2C(=O)N[C@H]3C(=O)N[C@H](C(=O)N[C@H](C(=O)NCCCNC(=O)c4ccc5ccccc5c4)c4cc(O)cc(O)c4-c4cc3ccc4O)[C@H](O)c3ccc(c(Cl)c3)Oc3cc2cc(c3O[C@@H]2O[C@H](CO)[C@@H](O)[C@H](O)[C@H]2O[C@H]2C[C@](C)(N)[C@H](O)[C@H](C)O2)Oc2ccc(cc2Cl)[C@H]1O [Vanc-28] | > 250 | 4 | 0.20 (≈ 0.332 µg/mL) | 3.13 (≈ 5.19 µg/mL) | 64 | 4 | 0.20 (≈ 0.332 µg/mL) | 68 ± 16 | 2 | 0.39 (≈ 0.647 µg/mL) | 0.39 (≈ 0.647 µg/mL) | 2 | 2 | 0.39 (≈ 0.647 µg/mL) | 0.39 (≈ 0.647 µg/mL) | 16 | 229 ± 12 | 182 | 0.20 (≈ 0.332 µg/mL) | 8 | MIC (E. faecalis VRE 29): 6.25 µM (≈ 10.4 µg/mL); MIC-fold improvement vs. vancomycin (E. faecalis VRE 29): 64; MIC (E. faecalis VRE 53): 25 µM (≈ 41.5 µg/mL); MIC-fold improvement vs. vancomycin (E. faecalis VRE 53): 16; MIC (E. faecalis VRE 37): 12.5 µM (≈ 20.7 µg/mL); MIC (S. aureus VRSA): 3.13 µM (≈ 5.19 µg/mL); MIC-fold improvement vs. vancomycin (S. aureus VRSA): 32
